Results: paper PMC4709073, “Curiouser and Curiouser: The Macrocyclic Lactone, Abamectin, Is also a Potent Inhibitor of Pyrantel/Tribendimidine Nicotinic Acetylcholine Receptors of Gastro-Intestinal Worms” (PLoS ONE, 2016)

Target: T1, Ode-UNC-29:Ode-UNC-63:Ode-UNC-38 (Oesophagostomum dentatum, UniProt E5KIX9+V5J2B2+V5J336)
T1 construct: co-injected with Haemonchus contortus ancillary factors Hco-ric-3, Hco-unc-50, Hco-unc-74; clones from earlier work of the authors
T1 sequence (V5J2B2 21-497): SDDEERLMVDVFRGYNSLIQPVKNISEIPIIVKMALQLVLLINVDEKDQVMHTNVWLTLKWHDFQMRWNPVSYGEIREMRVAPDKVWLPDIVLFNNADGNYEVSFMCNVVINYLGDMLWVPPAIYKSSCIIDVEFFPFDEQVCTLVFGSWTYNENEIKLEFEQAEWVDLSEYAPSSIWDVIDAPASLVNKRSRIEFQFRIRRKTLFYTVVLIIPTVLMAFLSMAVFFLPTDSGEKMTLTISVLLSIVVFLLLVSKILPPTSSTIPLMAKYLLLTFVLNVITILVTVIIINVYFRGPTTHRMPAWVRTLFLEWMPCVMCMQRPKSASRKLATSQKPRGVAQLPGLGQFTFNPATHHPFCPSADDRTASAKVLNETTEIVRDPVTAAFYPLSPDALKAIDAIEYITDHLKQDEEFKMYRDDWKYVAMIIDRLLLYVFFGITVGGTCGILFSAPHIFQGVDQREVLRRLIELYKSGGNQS
T1 sequence (E5KIX9 22-507): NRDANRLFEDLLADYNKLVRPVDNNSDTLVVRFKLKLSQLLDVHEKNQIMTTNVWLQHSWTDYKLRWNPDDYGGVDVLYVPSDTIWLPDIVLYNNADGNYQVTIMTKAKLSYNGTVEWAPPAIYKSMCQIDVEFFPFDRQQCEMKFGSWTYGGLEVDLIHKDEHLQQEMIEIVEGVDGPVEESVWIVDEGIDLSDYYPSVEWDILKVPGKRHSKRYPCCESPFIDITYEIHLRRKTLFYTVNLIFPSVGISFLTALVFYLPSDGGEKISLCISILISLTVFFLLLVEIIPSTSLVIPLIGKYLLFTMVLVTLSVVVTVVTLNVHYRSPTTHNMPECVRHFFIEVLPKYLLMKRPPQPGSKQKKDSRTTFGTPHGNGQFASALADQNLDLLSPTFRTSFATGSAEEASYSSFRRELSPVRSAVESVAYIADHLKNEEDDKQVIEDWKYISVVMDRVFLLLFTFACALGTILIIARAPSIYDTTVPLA
T1 sequence (V5J336 21-507): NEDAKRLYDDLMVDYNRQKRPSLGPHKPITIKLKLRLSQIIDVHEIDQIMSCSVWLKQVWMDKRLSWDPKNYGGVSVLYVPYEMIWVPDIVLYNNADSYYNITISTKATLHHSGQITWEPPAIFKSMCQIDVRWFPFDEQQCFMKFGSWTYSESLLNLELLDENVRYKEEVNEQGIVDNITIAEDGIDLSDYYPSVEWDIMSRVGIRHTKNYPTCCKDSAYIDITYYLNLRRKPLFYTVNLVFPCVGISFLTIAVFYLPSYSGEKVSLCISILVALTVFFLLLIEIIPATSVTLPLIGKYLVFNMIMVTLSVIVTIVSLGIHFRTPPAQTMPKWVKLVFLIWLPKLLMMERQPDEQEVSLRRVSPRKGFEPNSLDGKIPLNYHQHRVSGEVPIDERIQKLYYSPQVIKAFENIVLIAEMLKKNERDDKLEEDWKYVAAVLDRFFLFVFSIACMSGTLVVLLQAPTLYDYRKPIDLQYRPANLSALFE
Test: two-electrode voltage clamp, Xenopus oocytes, agonist concentration-response, Hill fit
Type: cell-based

SMILES	EC50 [µM]
CC(=O)OCC[N+](C)(C)C [acetylcholine]	13 ± 1.6
CN1CCCN=C1/C=C/c1cccs1 [pyrantel]	0.4
